Measurements published in PMC8206283, “Three New Quinazoline-Containing Indole Alkaloids From the Marine-Derived Fungus Aspergillus sp. HNMF114” (Frontiers in Microbiology, 2021).

Biological target: T1, ryanodine receptor from Spodoptera frugiperda (sfRyR) (Spodoptera frugiperda, UniProt A0A4P8L6R5)
T1 construct: gene RyR
Assay: time-lapse R-CEPIA1er [Ca2+]ER measurement in HEK cells stably expressing sfRyR (positive control)
Format: cell-based

T1 sequence (A0A4P8L6R5 entry or part of it): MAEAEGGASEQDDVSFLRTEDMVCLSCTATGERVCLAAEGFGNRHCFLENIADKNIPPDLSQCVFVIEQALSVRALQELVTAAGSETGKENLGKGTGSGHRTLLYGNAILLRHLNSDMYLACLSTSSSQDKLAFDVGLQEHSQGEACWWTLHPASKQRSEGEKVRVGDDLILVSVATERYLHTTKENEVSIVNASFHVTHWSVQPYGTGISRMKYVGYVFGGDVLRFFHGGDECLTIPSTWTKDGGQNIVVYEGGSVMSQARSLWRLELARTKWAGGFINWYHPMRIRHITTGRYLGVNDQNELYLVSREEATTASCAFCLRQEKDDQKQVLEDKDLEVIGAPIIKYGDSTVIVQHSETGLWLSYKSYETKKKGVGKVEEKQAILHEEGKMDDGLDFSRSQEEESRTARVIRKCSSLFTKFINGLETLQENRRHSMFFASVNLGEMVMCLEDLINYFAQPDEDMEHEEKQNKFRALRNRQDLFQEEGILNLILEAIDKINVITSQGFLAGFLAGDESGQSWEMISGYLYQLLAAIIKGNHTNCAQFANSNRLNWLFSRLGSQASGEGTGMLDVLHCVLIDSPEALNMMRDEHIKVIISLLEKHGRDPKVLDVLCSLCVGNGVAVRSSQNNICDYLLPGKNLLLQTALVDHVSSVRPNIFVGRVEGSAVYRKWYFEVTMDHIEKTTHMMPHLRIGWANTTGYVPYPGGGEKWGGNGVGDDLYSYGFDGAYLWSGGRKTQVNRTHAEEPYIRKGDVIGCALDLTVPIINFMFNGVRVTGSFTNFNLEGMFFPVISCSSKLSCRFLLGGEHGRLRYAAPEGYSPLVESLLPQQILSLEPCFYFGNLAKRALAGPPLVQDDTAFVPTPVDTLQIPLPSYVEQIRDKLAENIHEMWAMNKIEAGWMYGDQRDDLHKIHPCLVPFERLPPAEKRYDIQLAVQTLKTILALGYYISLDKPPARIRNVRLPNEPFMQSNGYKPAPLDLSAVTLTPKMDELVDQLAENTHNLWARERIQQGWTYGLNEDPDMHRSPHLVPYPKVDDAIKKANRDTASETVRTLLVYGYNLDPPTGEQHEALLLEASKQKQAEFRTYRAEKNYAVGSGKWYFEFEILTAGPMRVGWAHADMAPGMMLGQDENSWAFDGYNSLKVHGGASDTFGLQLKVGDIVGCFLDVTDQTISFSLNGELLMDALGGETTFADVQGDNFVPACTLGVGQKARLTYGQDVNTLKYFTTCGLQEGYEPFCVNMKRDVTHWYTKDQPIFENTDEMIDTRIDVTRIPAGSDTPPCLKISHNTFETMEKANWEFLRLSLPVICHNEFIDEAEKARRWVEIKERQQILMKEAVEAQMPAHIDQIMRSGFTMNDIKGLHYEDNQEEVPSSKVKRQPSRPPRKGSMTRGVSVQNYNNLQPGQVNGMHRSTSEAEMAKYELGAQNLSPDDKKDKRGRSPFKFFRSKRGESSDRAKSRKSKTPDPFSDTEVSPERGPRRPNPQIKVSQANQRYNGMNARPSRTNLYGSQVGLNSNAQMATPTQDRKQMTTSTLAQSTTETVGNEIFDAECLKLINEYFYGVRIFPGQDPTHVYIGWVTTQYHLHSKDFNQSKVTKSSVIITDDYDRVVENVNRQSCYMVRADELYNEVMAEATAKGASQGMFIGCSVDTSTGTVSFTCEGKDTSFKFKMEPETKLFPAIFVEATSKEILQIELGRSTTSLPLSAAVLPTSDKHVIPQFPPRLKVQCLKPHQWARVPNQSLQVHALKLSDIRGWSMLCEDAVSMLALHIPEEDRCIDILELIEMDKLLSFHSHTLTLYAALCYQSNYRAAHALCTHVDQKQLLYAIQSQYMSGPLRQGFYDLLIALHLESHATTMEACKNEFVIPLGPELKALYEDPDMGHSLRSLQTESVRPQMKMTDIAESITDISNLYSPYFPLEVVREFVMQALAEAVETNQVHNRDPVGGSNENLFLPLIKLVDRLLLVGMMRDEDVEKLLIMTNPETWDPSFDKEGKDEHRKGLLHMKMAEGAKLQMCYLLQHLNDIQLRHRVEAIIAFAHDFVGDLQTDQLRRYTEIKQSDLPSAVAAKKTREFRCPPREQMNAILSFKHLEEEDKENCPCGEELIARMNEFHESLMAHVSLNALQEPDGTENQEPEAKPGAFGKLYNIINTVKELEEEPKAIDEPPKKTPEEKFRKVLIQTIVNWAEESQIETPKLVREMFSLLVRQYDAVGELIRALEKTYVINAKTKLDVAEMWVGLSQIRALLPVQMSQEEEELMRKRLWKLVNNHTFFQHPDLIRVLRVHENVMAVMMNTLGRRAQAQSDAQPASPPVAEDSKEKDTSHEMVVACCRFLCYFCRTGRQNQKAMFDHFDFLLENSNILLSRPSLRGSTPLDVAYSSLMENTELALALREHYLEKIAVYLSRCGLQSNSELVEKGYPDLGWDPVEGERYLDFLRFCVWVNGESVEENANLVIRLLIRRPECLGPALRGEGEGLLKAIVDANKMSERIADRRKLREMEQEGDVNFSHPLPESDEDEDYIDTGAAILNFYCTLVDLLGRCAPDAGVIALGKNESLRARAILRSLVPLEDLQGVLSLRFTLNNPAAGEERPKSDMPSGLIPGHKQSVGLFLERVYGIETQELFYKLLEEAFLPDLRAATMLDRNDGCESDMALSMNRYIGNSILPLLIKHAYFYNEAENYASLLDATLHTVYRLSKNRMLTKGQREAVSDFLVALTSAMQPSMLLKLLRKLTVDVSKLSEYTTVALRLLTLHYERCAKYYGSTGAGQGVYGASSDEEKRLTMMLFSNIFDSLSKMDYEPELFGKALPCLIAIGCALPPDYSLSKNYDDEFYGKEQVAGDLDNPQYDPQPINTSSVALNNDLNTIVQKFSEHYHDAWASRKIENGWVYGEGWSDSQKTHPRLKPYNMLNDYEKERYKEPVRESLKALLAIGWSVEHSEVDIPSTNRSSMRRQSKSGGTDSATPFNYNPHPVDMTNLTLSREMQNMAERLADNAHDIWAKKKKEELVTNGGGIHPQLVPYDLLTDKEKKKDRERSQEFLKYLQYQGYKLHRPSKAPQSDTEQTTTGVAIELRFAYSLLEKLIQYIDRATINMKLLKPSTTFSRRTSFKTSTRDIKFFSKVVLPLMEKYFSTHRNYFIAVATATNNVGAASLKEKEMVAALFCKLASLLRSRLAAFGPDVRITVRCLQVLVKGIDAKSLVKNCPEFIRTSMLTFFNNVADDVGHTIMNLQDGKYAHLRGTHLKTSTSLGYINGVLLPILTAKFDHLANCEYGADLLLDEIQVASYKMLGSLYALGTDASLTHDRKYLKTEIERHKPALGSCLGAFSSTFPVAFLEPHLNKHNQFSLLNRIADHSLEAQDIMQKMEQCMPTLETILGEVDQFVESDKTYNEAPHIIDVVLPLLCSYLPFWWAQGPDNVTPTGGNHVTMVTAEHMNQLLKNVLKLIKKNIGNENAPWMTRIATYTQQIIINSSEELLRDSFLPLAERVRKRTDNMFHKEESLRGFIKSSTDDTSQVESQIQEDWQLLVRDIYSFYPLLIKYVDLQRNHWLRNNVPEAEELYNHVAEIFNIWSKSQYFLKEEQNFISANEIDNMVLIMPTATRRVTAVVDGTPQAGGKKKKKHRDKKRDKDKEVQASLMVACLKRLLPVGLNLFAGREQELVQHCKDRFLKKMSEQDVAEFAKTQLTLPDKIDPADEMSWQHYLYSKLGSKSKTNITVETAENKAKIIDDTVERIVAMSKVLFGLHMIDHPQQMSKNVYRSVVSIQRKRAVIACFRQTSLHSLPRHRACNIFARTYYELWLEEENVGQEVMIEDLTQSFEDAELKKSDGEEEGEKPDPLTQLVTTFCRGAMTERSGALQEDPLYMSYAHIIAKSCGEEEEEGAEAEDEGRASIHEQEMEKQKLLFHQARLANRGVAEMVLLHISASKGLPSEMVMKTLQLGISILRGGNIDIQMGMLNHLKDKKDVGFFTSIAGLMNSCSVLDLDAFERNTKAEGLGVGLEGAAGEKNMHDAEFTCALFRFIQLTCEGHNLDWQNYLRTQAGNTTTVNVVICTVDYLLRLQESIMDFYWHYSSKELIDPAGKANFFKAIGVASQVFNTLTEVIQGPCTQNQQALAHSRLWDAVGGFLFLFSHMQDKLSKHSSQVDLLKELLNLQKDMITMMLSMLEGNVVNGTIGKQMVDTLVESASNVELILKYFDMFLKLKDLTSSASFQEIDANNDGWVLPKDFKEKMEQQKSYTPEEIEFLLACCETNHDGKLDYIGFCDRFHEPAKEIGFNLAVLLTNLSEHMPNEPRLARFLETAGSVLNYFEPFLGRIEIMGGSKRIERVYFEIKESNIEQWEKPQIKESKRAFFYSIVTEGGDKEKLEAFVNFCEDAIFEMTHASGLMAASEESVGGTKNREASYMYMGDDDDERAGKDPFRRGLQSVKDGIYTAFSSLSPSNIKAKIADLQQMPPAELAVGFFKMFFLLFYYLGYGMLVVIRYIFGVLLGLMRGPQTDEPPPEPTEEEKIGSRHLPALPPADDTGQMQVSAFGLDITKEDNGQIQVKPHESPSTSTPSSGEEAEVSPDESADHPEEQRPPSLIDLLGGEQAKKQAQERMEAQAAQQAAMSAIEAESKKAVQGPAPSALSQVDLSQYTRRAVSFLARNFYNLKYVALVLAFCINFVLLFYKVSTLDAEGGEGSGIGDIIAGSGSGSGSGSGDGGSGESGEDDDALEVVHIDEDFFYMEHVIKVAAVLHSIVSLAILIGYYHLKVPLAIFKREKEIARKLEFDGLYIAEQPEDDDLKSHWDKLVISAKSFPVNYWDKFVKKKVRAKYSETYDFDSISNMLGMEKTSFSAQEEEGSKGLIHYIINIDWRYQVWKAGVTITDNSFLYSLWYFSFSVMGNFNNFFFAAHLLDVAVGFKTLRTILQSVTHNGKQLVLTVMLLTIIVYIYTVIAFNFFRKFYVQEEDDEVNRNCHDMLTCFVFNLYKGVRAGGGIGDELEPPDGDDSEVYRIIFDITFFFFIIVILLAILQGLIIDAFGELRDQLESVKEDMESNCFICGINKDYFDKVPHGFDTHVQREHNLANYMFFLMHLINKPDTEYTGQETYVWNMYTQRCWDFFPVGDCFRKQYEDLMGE

Structure (SMILES): CNC(=O)c1cc(Cl)cc(C)c1NC(=O)c1cc(Br)nn1-c1ncccc1Cl [chlo, chlorantraniliprole]
- time-lapse R-CEPIA1er [Ca2+]ER measurement in HEK cells stably expressing sfRyR: their effect in intracellular Ca2 release is similar to that of the positive control chlo
